{
  "source": "patent US5710154A",
  "about": "“Tetrahydrofuran antifungals” (Schering Corporation, priority 1995, dated 1998)",
  "key": {"Candida krusei": {"tested_on": "Candida krusei", "experiment": "In vitro antifungal activity, broth dilution (MIC/MFC), Candida krusei", "type": "cell-based", "details": "16 strains", "experimental": "(§1) The in vitro antifungal activity tests were performed via conventional broth dilution methods in Sabouraud dextrose broth (\"SDB\") medium and Eagles Minimum Essential Medium (\"EMEM\") against a large number of fungi. Minimum Inhibitory Concentrations (\"MICs\") were measured after 24, 48 and 72 hour tests. In many cases, Minimum Fungicidial Concentrations (\"MFCS\") were measured after 48 and 72 hours."}, "Candida glabrata": {"tested_on": "Candida glabrata", "experiment": "In vitro antifungal activity, broth dilution (MIC/MFC), Candida glabrata", "type": "cell-based", "details": "9 strains", "experimental": "as §1"}, "Cryptococcus neoformans": {"tested_on": "Cryptococcus neoformans", "experiment": "In vitro antifungal activity, broth dilution (MIC/MFC), Cryptococcus neoformans", "type": "cell-based", "details": "3 strains", "experimental": "as §1"}, "[1]": {"tested_on": "Candida tropicalis & stellatoidea", "experiment": "In vitro antifungal activity, broth dilution (MIC/MFC), Candida tropicalis & stellatoidea", "type": "cell-based", "details": "5 strains", "experimental": "as §1"}, "Dermatophytes": {"tested_on": "Dermatophytes", "experiment": "In vitro antifungal activity, broth dilution (MIC/MFC), dermatophytes", "type": "cell-based, T. rubrum, T. mentagrophytes, and T. tonsurans", "details": "6 strains"}, "Candida albicans": {"tested_on": "Candida albicans", "experiment": "In vitro antifungal activity, broth dilution (MIC/MFC), Candida albicans", "type": "cell-based", "details": "26 strains", "experimental": "as §1"}, "Aspergillus": {"tested_on": "Aspergillus", "experiment": "In vitro antifungal activity, broth dilution (MIC/MFC), Aspergillus", "type": "cell-based, Aspergillus (flavus, fumigatus and other species)", "details": "37 strains", "experimental": "as §1"}, "[2]": {"experiment": "Serum half life and tissue distribution following O.D. dosing", "type": "in vivo, mice, rats, dogs and monkeys"}, "[3]": {"experiment": "Serum levels following oral dosing, rats", "type": "in vivo", "details": "methyl cellulose formulation, compared to azoles of similar structure"}, "[4]": {"experiment": "Serum levels following oral dosing, monkeys", "type": "in vivo", "details": "methyl cellulose formulation, compared to azoles of similar structure"}, "[5]": {"experiment": "Serum levels following oral dosing, mice", "type": "in vivo", "details": "methyl cellulose formulation, compared to azoles of similar structure"}, "[6]": {"experiment": "Serum levels following oral dosing, dogs", "type": "in vivo", "details": "methyl cellulose formulation, compared to azoles of similar structure"}},
  "data": [
    {"smiles": "CCC(C(C)O)n1ncn(-c2ccc(N3CCN(c4ccc(OCC5COC(Cn6cncn6)(c6ccc(F)cc6F)C5)cc4)CC3)cc2)c1=O", "note": "(stereo not drawn) [drawing 31]", "values": [
      {"measurement": "MIC 90 (Minimum Inhibitory Concentrations for 90% of the strains)", "setting": "Candida krusei", "value": ".014 MCG/ML"},
      {"measurement": "MIC 90 (Minimum Inhibitory Concentrations for 90% of the strains)", "setting": "Candida glabrata", "value": 17.1, "unit": "MCG/ML"},
      {"measurement": "MIC 90 (Minimum Inhibitory Concentrations for 90% of the strains)", "setting": "Cryptococcus neoformans", "value": ".007 MCG/ML"},
      {"measurement": "MIC 90 (Minimum Inhibitory Concentrations for 90% of the strains)", "setting": "[1]", "value": ".117 MCG/ML"},
      {"measurement": "MIC 90 (Minimum Inhibitory Concentrations for 90% of the strains)", "setting": "Dermatophytes", "value": ".101 MCG/ML"},
      {"measurement": "MIC 90 (Minimum Inhibitory Concentrations for 90% of the strains)", "setting": "Candida albicans", "value": ".174 MCG/ML"},
      {"measurement": "MIC 90 (Minimum Inhibitory Concentrations for 90% of the strains)", "setting": "Aspergillus", "value": ".096 MCG/ML"}
    ]},
    {"smiles": "CCC(C(C)O)n1ncn(-c2ccc(N3CCN(c4ccc(OCC5COC(Cn6cncn6)(c6ccc(F)cc6F)C5)cc4)CC3)cc2)c1=O", "note": "(stereo not drawn) [drawing 27]", "values": [
      {"measurement": "Percentage of strains with MFCs ≤1 mcg/ml", "setting": "Candida krusei", "value": 94, "unit": "%"},
      {"measurement": "Percentage of strains with MFCs ≤1 mcg/ml", "setting": "Candida glabrata", "value": 22, "unit": "%"},
      {"measurement": "Percentage of strains with MFCs ≤1 mcg/ml", "setting": "Cryptococcus neoformans", "value": 100, "unit": "%"},
      {"measurement": "Percentage of strains with MFCs ≤1 mcg/ml", "setting": "[1]", "value": 100, "unit": "%"},
      {"measurement": "Percentage of strains with MFCs ≤1 mcg/ml", "setting": "Dermatophytes", "value": 83, "unit": "%"},
      {"measurement": "Percentage of strains with MFCs ≤1 mcg/ml", "setting": "Candida albicans", "value": 100, "unit": "%"},
      {"measurement": "Percentage of strains with MFCs ≤1 mcg/ml", "setting": "Aspergillus", "value": 62, "unit": "%"}
    ]},
    {"smiles": "CCC(C(C)O)n1ncn(-c2ccc(N3CCN(c4ccc(OCC5COC(Cn6cncn6)(c6ccc(F)cc6F)C5)cc4)CC3)cc2)c1=O", "note": "(stereo not drawn) [drawing 26]", "values": [
      {"measurement": "Percentage of strains with MFCs ≤1 mcg/ml", "setting": "Candida krusei", "value": 88, "unit": "%"},
      {"measurement": "Percentage of strains with MFCs ≤1 mcg/ml", "setting": "Candida glabrata", "value": 22, "unit": "%"},
      {"measurement": "Percentage of strains with MFCs ≤1 mcg/ml", "setting": "Cryptococcus neoformans", "value": 100, "unit": "%"},
      {"measurement": "Percentage of strains with MFCs ≤1 mcg/ml", "setting": "[1]", "value": 100, "unit": "%"},
      {"measurement": "Percentage of strains with MFCs ≤1 mcg/ml", "setting": "Dermatophytes", "value": 67, "unit": "%"},
      {"measurement": "Percentage of strains with MFCs ≤1 mcg/ml", "setting": "Candida albicans", "value": 100, "unit": "%"},
      {"measurement": "Percentage of strains with MFCs ≤1 mcg/ml", "setting": "Aspergillus", "value": 50, "unit": "%"}
    ]},
    {"smiles": "CCC(C(C)O)n1ncn(-c2ccc(N3CCN(c4ccc(OCC5COC(Cn6cncn6)(c6ccc(F)cc6F)C5)cc4)CC3)cc2)c1=O", "note": "(stereo not drawn) [drawing 28]", "values": [
      {"measurement": "Percentage of strains with MFCs ≤1 mcg/ml", "setting": "Candida krusei", "value": 100, "unit": "%"},
      {"measurement": "Percentage of strains with MFCs ≤1 mcg/ml", "setting": "Candida glabrata", "value": 22, "unit": "%"},
      {"measurement": "Percentage of strains with MFCs ≤1 mcg/ml", "setting": "Cryptococcus neoformans", "value": 100, "unit": "%"},
      {"measurement": "Percentage of strains with MFCs ≤1 mcg/ml", "setting": "[1]", "value": 100, "unit": "%"},
      {"measurement": "Percentage of strains with MFCs ≤1 mcg/ml", "setting": "Dermatophytes", "value": 100, "unit": "%"},
      {"measurement": "Percentage of strains with MFCs ≤1 mcg/ml", "setting": "Candida albicans", "value": 100, "unit": "%"},
      {"measurement": "Percentage of strains with MFCs ≤1 mcg/ml", "setting": "Aspergillus", "value": 89, "unit": "%"}
    ]},
    {"smiles": "CCC(C(C)O)n1ncn(-c2ccc(N3CCN(c4ccc(OCC5COC(Cn6cncn6)(c6ccc(F)cc6F)C5)cc4)CC3)cc2)c1=O", "note": "(stereo not drawn) [drawing 21]", "values": [
      {"measurement": "tissue distribution", "setting": "[2]", "value": "good tissue distribution"},
      {"measurement": "serum levels", "setting": "[3]", "value": "consistently higher serum levels"},
      {"measurement": "serum levels", "setting": "[4]", "value": "consistently higher serum levels"},
      {"measurement": "serum levels", "setting": "[5]", "value": "consistently higher serum levels"},
      {"measurement": "serum levels", "setting": "[6]", "value": "consistently higher serum levels"}
    ]},
    {"smiles": "CCC(C(C)O)n1ncn(-c2ccc(N3CCN(c4ccc(OCC5COC(Cn6cncn6)(c6ccc(F)cc6F)C5)cc4)CC3)cc2)c1=O", "note": "(stereo not drawn) [drawing 32]", "values": [
      {"measurement": "MIC 90 (Minimum Inhibitory Concentrations for 90% of the strains)", "setting": "Candida krusei", "value": ".12 MCG/ML"},
      {"measurement": "MIC 90 (Minimum Inhibitory Concentrations for 90% of the strains)", "setting": "Candida glabrata", "value": 28.8, "unit": "MCG/ML"},
      {"measurement": "MIC 90 (Minimum Inhibitory Concentrations for 90% of the strains)", "setting": "[1]", "value": ".354 MCG/ML"},
      {"measurement": "MIC 90 (Minimum Inhibitory Concentrations for 90% of the strains)", "setting": "Dermatophytes", "value": ".707 MCG/ML"},
      {"measurement": "MIC 90 (Minimum Inhibitory Concentrations for 90% of the strains)", "setting": "Candida albicans", "value": ".139 MCG/ML"},
      {"measurement": "MIC 90 (Minimum Inhibitory Concentrations for 90% of the strains)", "setting": "Aspergillus", "value": ".112 MCG/ML"}
    ]},
    {"smiles": "OC(Cn1cncn1)(Cn1cncn1)c1ccc(F)cc1F", "note": "[fluconazole, reference compound]", "values": [
      {"measurement": "Percentage of strains with MFCs ≤1 mcg/ml", "setting": "Candida krusei", "value": 0, "unit": "%"},
      {"measurement": "Percentage of strains with MICs ≤1 mcg/ml", "setting": "Candida krusei", "value": 0, "unit": "%"},
      {"measurement": "Percentage of strains with MFCs ≤1 mcg/ml", "setting": "Candida glabrata", "value": 0, "unit": "%"},
      {"measurement": "Percentage of strains with MICs ≤1 mcg/ml", "setting": "Candida glabrata", "value": 0, "unit": "%"},
      {"measurement": "Percentage of strains with MFCs ≤1 mcg/ml", "setting": "Cryptococcus neoformans", "value": 0, "unit": "%"},
      {"measurement": "Percentage of strains with MICs ≤1 mcg/ml", "setting": "Cryptococcus neoformans", "value": 0, "unit": "%"},
      {"measurement": "Percentage of strains with MFCs ≤1 mcg/ml", "setting": "[1]", "value": 100, "unit": "%"},
      {"measurement": "Percentage of strains with MICs ≤1 mcg/ml", "setting": "[1]", "value": 100, "unit": "%"},
      {"measurement": "Percentage of strains with MFCs ≤1 mcg/ml", "setting": "Dermatophytes", "value": 0, "unit": "%"},
      {"measurement": "Percentage of strains with MICs ≤1 mcg/ml", "setting": "Dermatophytes", "value": 100, "unit": "%"},
      {"measurement": "Percentage of strains with MFCs ≤1 mcg/ml", "setting": "Candida albicans", "value": 100, "unit": "%"},
      {"measurement": "Percentage of strains with MICs ≤1 mcg/ml", "setting": "Candida albicans", "value": 100, "unit": "%"},
      {"measurement": "Percentage of strains with MFCs ≤1 mcg/ml", "setting": "Aspergillus", "value": 0, "unit": "%"},
      {"measurement": "Percentage of strains with MICs ≤1 mcg/ml", "setting": "Aspergillus", "value": 0, "unit": "%"}
    ]},
    {"smiles": "CCC(C(C)O)n1ncn(-c2ccc(N3CCN(c4ccc(OCC5COC(Cn6cncn6)(c6ccc(F)cc6F)C5)cc4)CC3)cc2)c1=O", "note": "(stereo not drawn) [drawing 30]", "values": [
      {"measurement": "MIC 90 (Minimum Inhibitory Concentrations for 90% of the strains)", "setting": "Candida krusei", "value": ".058 MCG/ML"},
      {"measurement": "MIC 90 (Minimum Inhibitory Concentrations for 90% of the strains)", "setting": "Cryptococcus neoformans", "value": ".05 MCG/ML"},
      {"measurement": "MIC 90 (Minimum Inhibitory Concentrations for 90% of the strains)", "setting": "[1]", "value": ".117 MCG/ML"},
      {"measurement": "MIC 90 (Minimum Inhibitory Concentrations for 90% of the strains)", "setting": "Dermatophytes", "value": ".165 MCG/ML"}
    ]}
  ]
}
